{
  "source": "patent US20230365555A1",
  "about": "“CRYSTALLINE POLYMORPH FORM A OF A JAK INHIBITORAND METHODS FOR ITS PREPARATION” (ACLARIS THERAPEUTICS, INC., priority 2020, published 2023)",
  "assay": "Dynamic vapor sorption (DVS) analysis",
  "format": "physicochemical",
  "conditions": "bulk material, a batch of Compound 1; FIG. 5",
  "data": [
    {"compound": "CCOC(=O)c1cnc2[nH]ccc2c1N[C@@H]1CCCN(C(=O)CC#N)C1", "note": "[Compound 1, ethyl (R)-4-((1-(2-cyanoacetyl)piperidin-3-yl)amino)-1H-pyrrolo[2,3-b]pyridine-5-carboxylate]", "values": [
      {"measurement": "moisture uptake (DVS isotherms)", "result": "low moisture uptake"}
    ]}
  ]
}
